Measurements published in PubChem BioAssay AID720600 (Broad Institute, 2013).
Inconclusive results are not listed.

System: SNB-19 viability, Alamar Blue fluorescence, 8-48 h
Test: SNB-19 glioblastoma cell viability loss, dose response, HRAS target identification, Alamar Blue fluorescence, 8/24/48 h, dry powder (AID 720600)

| Compound | AC50 (measured here: 8 h treatment) | AC50 (measured here: 24 h treatment) | AC50 (measured here: 48 h treatment) |
| --- | --- | --- | --- |
| COc1ccc(N(C(=O)CCl)C(C(=O)NCCc2ccccc2)c2cccs2)cc1Cl (configuration not stated) | 77.1 nM | 112 nM | 149 nM |
| CC(C)(C)OC(=O)NCCOCCOCCOc1ccc(N(C(=O)CCl)C(C(=O)NCCc2ccccc2)c2cccs2)cc1Cl (configuration not stated) |  | 296 nM | 353 nM |
| C#CCCCC(=O)NCCOCCOCCOc1ccc(N(C(=O)CCl)C(C(=O)NCCc2ccccc2)c2cccs2)cc1Cl (configuration not stated) |  | 946 nM | 2780 nM |
